Measured values as given in patent publication US20250051479A1, “CYTOTOXICITY TARGETING CHIMERAS FOR CXCR3-EXPRESSING CELLS” (GLAXOSMITHKLINE INTELLECTUAL PROPERTY DEVELOPMENT LIMITED, priority 2022, published 2025).

Tested on: CHOK1 cells engineered to overexpress CXCR3
Experiment: Antibody dependent cellular cytotoxicity (ADCC) reporter assay
Type: cell-based
Conditions: with anti-cotinine antibody (human IgG1 Fc, S239D/I332E), Jurkat FcγRIIIa NFAT-luciferase reporter cells, incubated about 12-18 hours, average of two experimental runs, EC50 in molar (M)
Protocol: An antibody dependent cellular cytotoxicity (ADCC) reporter assay was conducted using the following four assay components: (i) ARM compound of Formula (I) targeting CXCR3 (concentrations ranging from 1 pM to 10 μM); (ii) anti-cotinine antibody having a heavy chain sequence of SEQ ID NO: 11 and a light chain sequence of SEQ ID NO: 12 (rabbit variable region with human IgG1 Fc domain containing DE mutation (S239D/I332E)) (concentrations ranging from 0.01 μg/mL-200 μg/mL); (iii) Target cells: CHOK1 cells engineered to overexpress CXCR3 (typically 1000-20,000 cells per well); and (iv) Reporter cells—Jurkat cells engineered to express FcγRIIIa with a reporter gene luciferase under the control of the NFAT promoter (typically 3000-75,000 cells per well). Reagents were combined in final volume of 20 μL in 384-well tissue culture treated plate. […]
Luminescence signal was measured on a microplate reader capable of measuring luminescence and signal:background was calculated by dividing the signal of a test well by the signal obtained when no compound of formula (I) was included in the assay. […]
ARMs compounds of Formula (I) were tested for ADCC activity in the above assay in two experimental runs and the results are shown in Table 3 below. […] The pEC50 value is the negative log of the EC50 value, wherein the EC50 value is half maximal effective concentration measured in molar (M). […]

| SMILES | EC50 (Cricetulus griseus, read-out: ADCC Reporter Assay pEC50 (converted)) | ADCC Reporter Assay pEC50 |
| --- | --- | --- |
| CCOc1ccc(-n2c([C@@H](C)N(CC3CCN(C(=O)[C@H]4CC[C@H](NC(=O)CCCO[C@H]5CC[C@H](OCCNC(=O)[C@H]6CC(=O)N(C)[C@@H]6c6cccnc6)CC5)CC4)CC3)C(=O)Cc3ccc(F)c(C(F)(F)F)c3)nc3ncccc3c2=O)cc1 (racemic) [Example 2, (2S,3S)-N-(2-(((1R,4S)-4-(4-(((1S,4S)-4-(4-((N-((R)-1-(3-(4-ethoxyphenyl)-4-oxo-3,4-dihydropyrido[2,3-d]pyrimidin-2-yl)ethyl)-2-(4-fluoro-3-(trifluoromethyl)phenyl)acetamido)methyl)piperidine-1-carbonyl)cyclohexyl)amino)-4-oxobutoxy)cyclohexyl)oxy)ethyl)-1-methyl-5-oxo-2-(pyridin-3-yl)pyrrolidine-3-carboxamide] | 3.98e-09 M | – |
| CCOc1ccc(-n2c([C@@H](C)N(CC3CCN(C(=O)C4CCC(NC(=O)CCCOC5CCC(OCCNC(=O)[C@H]6CC(=O)N(C)[C@@H]6c6cccnc6)CC5)CC4)CC3)C(=O)Cc3ccc(F)c(C(F)(F)F)c3)nc3ncccc3c2=O)cc1 (stereo partly drawn) [Example 1, (2S,3S)—N-(2-(((1R,4S)-4-(4-(((1R,4R)-4-(4-((N-((R)-1-(3-(4-ethoxyphenyl)-4-oxo-3,4-dihydropyrido[2,3-d]pyrimidin-2-yl)ethyl)-2-(4-fluoro-3-(trifluoromethyl)phenyl)acetamido)methyl)piperidine-1-carbonyl)cyclohexyl)amino)-4-oxobutoxy)cyclohexyl)oxy)ethyl)-1-methyl-5-oxo-2-(pyridin-3-yl)pyrrolidine-3-carboxamide] | – | 7.7 |
